Reference: US20230293529A1, “DOSING REGIMENS FOR N-((5-FLUORO-2,3-DIHYDROBENZOFURAN-4-YL)METHYL)-8-(2-METHYLPYRIDIN-3-YL)-[1,2,4]TRIAZOLO[4,3-C]PYRIMIDIN-5-AMINE, OR A PHARMACEUTICALLY ACCEPTABLE SALT THEREOF, FOR USE IN TREATING PRC2-MEDIATED DISEASES OR DISORDERS” (Novartis AG, priority 2020, published 2023)

Key:
[1] = Pharmacokinetic profile of MAK683 in sequential blood samples, Phase I/II study; type: in vivo, human
Text: (§1) This study is a multicenter, open label, study to establish the maximum tolerated dose (MTD) and/or recommended phase 2 dose (RP2D) and to evaluate the safety, antitumor activity and pharmacokinetic (PK) profile of MAK683 (Compound (1) of MAK683 (Compound (1) in subjects with advanced malignancies such as Diffuse Large B cell Lymphoma (DLBCL), nasopharyngeal carcinoma (NPC) or other advanced solid tumors for whom no further effective standard treatment is available. The patients will be administered MAK683 single agent orally until they experience unacceptable toxicity, progressive disease and/or treatment discontinuation at the discretion of the investigator or patient or withdrawal of consent. The phase I part plans to enroll patients with relapsed/refractory DLBCL, advanced/ metastatic nasopharyngeal carcinoma with presence of p16/CDKN2A gene and other solid tumors including castration-resistant prostate cancer, gastric cancer, OCCC, sarcoma. All patients enrolled in this part of the study will receive escalating oral doses of MAK683 in fasted condition, unless significant GI toxicity is observed, in which case dosing with moderate-fat meals may be assessed. The starting dose and regimen for the MAK683 first-in-man clinical study is about 10 mg QD. Escalation will continue to about 20 mg, about 40 mg, about 80 mg, about 120 mg, about 160 mg, about 160 mg, about 240 mg, about 300 mg, about 500 mg or about 800 mg or until the MTD is reached or a RP2D is established based on emerging data.
(§2) MAK683 was administered fasted once (QD) or twice daily (BID) on a continuous schedule in 28-day treatment cycles. The pharmacokinetic (PK) profile of MAK683 was assessed in sequential blood samples on Days 1, 8 and/or 15 of Cycles 1-6. MAK683 pharmacodynamic activity in Cycle 1, measured by change in H3K27me3, was evaluated in peripheral blood monocytes on Days 1, 8, and 15 by flow cytometry and in tumor biopsies at baseline and Day 15 by H-score.

H3K27me3 [2] = experiment: Pharmacodynamic activity: change in H3K27me3 in peripheral blood monocytes by flow cytometry; type: in vivo, human
Experimental: as §2

H3K27me3 [3] = experiment: Pharmacodynamic activity: H3K27me3 in tumor biopsies by H-score; type: in vivo, human; settings: paired baseline-Day 15 tumor biopsies; diffuse large B-cell lymphoma (n=4) or sarcoma (n=6)
Experimental: as §2

[4] = tested on: advanced malignancies (DLBCL, nasopharyngeal carcinoma, other advanced solid tumors); experiment: Antitumor activity, overall response rate (ORR) in subjects with advanced malignancies; type: in vivo, human; settings: local assessment per Cheson 2014, RECIST v1.1 and PCWG2
Text: as §1, with “Escalation will continue to about 20 mg, about 40 mg, about 80 mg, about 120 mg, about 160 mg, about 160 mg, about 240 mg, about 300 mg, about 500 mg or about 800 mg or until the MTD is reached or a RP2D is established based on emerging data.” left out

[5] = Safety, adverse events in Phase I/II study; type: in vivo; settings: patients with advanced malignancies, oral MAK683
Text: as §1, with “Escalation will continue to about 20 mg, about 40 mg, about 80 mg, about 120 mg, about 160 mg, about 160 mg, about 240 mg, about 300 mg, about 500 mg or about 800 mg or until the MTD is reached or a RP2D is established based on emerging data.” left out

With Cc1ncccc1-c1cnc(NCc2c(F)ccc3c2CCO3)n2cnnc12 [MAK683, N-((5-fluoro-2,3-dihydrobenzofuran-4-yl)methyl)-8-(2-methylpyridin-3-yl)-[1,2,4]triazolo[4,3-c]pyrimidin-5-amine] the “PK exposure (Cmax and AUC) dose proportionality” value ([1]; 800 mg QD) was “over-proportional”, the “PK exposure (Cmax and AUC) dose proportionality” value ([1]; 10-500 mg QD and 60-450 mg BID) was “variable and broadly dose-proportional” and the “accumulation after multiple doses (Racc)” value ([1]; after multiple doses) was 0.8-2.3. It also gave a half-life ([1]; human, blood, oral, across cohorts, unchanged after multiple doses, read-out: Apparent terminal half-life (geometric mean)) of 2.5 to 5.2 h, a Tmax ([1]; human, blood, patients, oral, fasted, 10-800 mg QD or 60-450 mg BID, read-out: median Tmax) of ~1 h and a Time to steady-state ([1]; patients, QD or BID continuous dosing) of ~3 days. For the same molecule, the “H3K27me3/H3 ratio change from baseline in peripheral monocytes” value (H3K27me3 [2]; Cycle 1, Days 1, 8, 15, across doses) was “substantial on-treatment reductions from baseline”, the “Maximum percentage reduction of H3K27me3/H3 ratio, relation to exposure” value (H3K27me3 [2]; peripheral monocytes) was “proportional to cumulative MAK683 AUC” and the “patients with H3K27me3 H-score reductions from baseline >40” value (H3K27me3 [3]) was 7/10. The “positive endpoint: improved overall response rate (ORR)” value [4] was “met at least one of the above endpoints” and the adverse events [5] was “mild to moderate and did not lead to discontinuation”.
